Data taken from PubChem BioAssay AID1996.
≈ marks a conversion by molar mass, not a printed value.

Conditions: buffer; pH 7.4; 200.0 µM

Row | Compound | solubility kinetic
1 | COc1cc(C=O)ccc1OC(=O)N1CCOCC1 | > 39.8 µg/mL
2 | Cn1c(=O)c([N+](=O)[O-])c(NCc2ccc3c(c2)OCO3)c2ccccc21 | 0.9 µg/mL (≈ 2.55 µM)
3 | Cc1sc2nc(-c3cccnc3)[nH]c(=O)c2c1-c1ccccc1 | 2.1 µg/mL (≈ 6.58 µM)
4 | NC(=O)c1ccc[n+](CC(=O)c2ccc(F)cc2)c1.[Br-] | > 50.9 µg/mL
5 | CCc1cccc(CC)c1C(OC(C)=O)c1cccnc1 (stereo not drawn) | 30.7 µg/mL (≈ 108 µM)
6 | O=C(NCc1ccco1)NC(=O)c1csc([N+](=O)[O-])c1 | 0.6 µg/mL (≈ 2.03 µM)
7 | Cn1c(NC(=O)c2ccccc2)nc2ccccc21 | 13 µg/mL (≈ 51.7 µM)
8 | Cc1ccc2ncnc(-c3ccccc3)c2c1 | 25.5 µg/mL (≈ 116 µM)
9 | O=C(COC(=O)c1ccc(Br)o1)Nc1cccc(S(=O)(=O)N2CCOCC2)c1 | 59.2 µg/mL (≈ 125 µM)
10 | O=C(Nc1cc2c3c(c1)CC(=O)N3CCC2)c1c(F)cccc1F | 9.6 µg/mL (≈ 29.2 µM)
11 | Cc1cc(C)c2c(N)c(C(=O)Nc3ccc(C)c(C)c3)sc2n1 | 1.1 µg/mL (≈ 3.38 µM)
12 | CC1CCCC(C)N1C(=O)COC(=O)COc1ccc(C#N)cc1 (stereo not drawn) | > 49.6 µg/mL
13 | Br.Fc1ccccc1CNCc1ccc2c(c1)OCO2 | > 51 µg/mL
14 | CCN(C(=S)NC(=O)C1CC1)c1ccccc1 | > 37.3 µg/mL
15 | COC(=O)c1scc(C)c1S(=O)(=O)Nc1ccc(C)cc1 | 6.5 µg/mL (≈ 20 µM)
16 | CCCCCn1c(=O)c(C(=O)Nc2cccc(C)c2)c(O)c2ccccc21 | < 0.4 µg/mL
17 | Cc1ccc(C(=O)O)c(C(=O)Nc2nc3ccccc3s2)c1 | > 46.9 µg/mL
18 | O=C(NCCc1ccc(F)cc1)c1cccc(NC(=O)c2ccccc2)c1 | 6 µg/mL (≈ 16.6 µM)

Row | Compound | solubility kinetic
19 | CCCOC1CCCN(Cc2nc(-c3cnccn3)no2)C1 (stereo not drawn) | 41.3 µg/mL (≈ 136 µM)
20 | CCCCCCN1C=CC=C/C1=C\C=C(C#N)C#N | 3.9 µg/mL (≈ 15.4 µM)
21 | Cc1ccc(NC(=O)Cn2cc(C(=O)C3CC3)c3ccccc32)cc1 | < 0.4 µg/mL
22 | Cc1ccccc1-c1nc(C(=O)NCC2CCCO2)cc2c1[nH]c1ccccc12 (stereo not drawn) | 3.2 µg/mL (≈ 8.3 µM)
23 | COCCNC(=O)/C(C#N)=C/c1ccc(OCc2ccc(F)cc2)cc1 | 3.4 µg/mL (≈ 9.59 µM)
24 | N[C@@H](Cc1ccc(O)cc1)C(=O)Nc1ccc2ccccc2c1 | > 46 µg/mL
25 | O=C(c1cc2cc(Cl)ccc2[nH]1)N1CCCCC1 | 2 µg/mL (≈ 7.61 µM)
26 | Cc1ccccc1C(=O)N1CCC(C(=O)NC2CCCCCC2)CC1 | 48.6 µg/mL (≈ 142 µM)
27 | CC(O)CNC(=O)Cc1cc(=O)[nH]c(=O)[nH]1 (stereo not drawn) | > 34.1 µg/mL
28 | CN(c1ccccc1)S(=O)(=O)c1cccc(NC(=O)CSc2nccc(=O)[nH]2)c1 | > 64.6 µg/mL
29 | N#Cc1ccccc1NC(=O)CN1C(=O)NC2(CCCC2)C1=O | > 46.8 µg/mL
30 | CCN(CC)S(=O)(=O)N1CCC(C(=O)NCc2ccco2)CC1 | > 51.5 µg/mL
31 | CCOc1ccc2[nH]c3c(NCCc4ccc(OC)c(OC)c4)ncnc3c2c1 | 5.9 µg/mL (≈ 15 µM)
32 | O=C1C(=O)N(Cc2cccs2)c2ccccc21 | > 36.5 µg/mL
33 | O=C(Nc1ccc2ccccc2c1)c1ccc2[nH]c(=O)c(=O)[nH]c2c1 | 4.3 µg/mL (≈ 13 µM)
34 | Cc1ccc(-c2c(NC(=O)C(C)C)n(C)c3ccccc3c2=O)cc1 | 29.4 µg/mL (≈ 87.9 µM)
35 | CCC1CCCCN1C(=O)COC(=O)c1cc(=O)[nH]c2ccccc12 (stereo not drawn) | > 51.4 µg/mL
36 | CCC(C)c1ccc(NC(=O)Nc2cccnc2)cc1 (stereo not drawn) | 33.2 µg/mL (≈ 123 µM)

Further lines, results first:

Row | solubility kinetic | Compound
37 | 34.1 µg/mL (≈ 142 µM) | COc1ccc(Cl)cc1-c1csc(N)n1
38 | 7.6 µg/mL (≈ 23.1 µM) | CCCc1cc(=O)[nH]c(SCC(=O)N2CCc3ccccc32)n1
39 | > 54.1 µg/mL | CC1(C(=O)Nc2ccc(S(=O)(=O)Nc3ncccn3)cc2)CCCC1
40 | 38.8 µg/mL (≈ 148 µM) | CC(C)CNC(=O)CC1Nc2ccccc2NC1=O (stereo not drawn)
41 | > 42.1 µg/mL | CN1CCN(C(=O)c2ccc(-c3ccccc3)cc2)CC1
42 | 32.9 µg/mL (≈ 96.6 µM) | CC(C)c1ccc(N(CC(=O)N2CCOCC2)S(C)(=O)=O)cc1
43 | > 51.4 µg/mL | CCOc1ccccc1C(=O)N(C)CC(=O)Nc1ccc(OC)cc1
44 | > 52.4 µg/mL | O=S(=O)(c1ccc(=S)[nH]c1)N1CCN(Cc2ccccc2)CC1
45 | 39.1 µg/mL (≈ 134 µM) | COc1ccccc1C(=O)Nc1cccc2nc(C)ccc12
46 | 5.3 µg/mL (≈ 17.7 µM) | Cc1ccc(NC(=O)c2ccc3c(c2)NC(=O)CS3)nc1
47 | > 52.7 µg/mL | Cc1nc(-c2ccc(S(=O)(=O)NCc3ccccn3)s2)cs1
48 | 34 µg/mL (≈ 102 µM) | COc1ccccc1C(=O)O/N=C(\c1ccccc1)c1ccncc1
49 | 3.3 µg/mL (≈ 13.8 µM) | Cc1cc2nc(-c3ccc[nH]c3=O)[nH]c2cc1C
50 | > 44.7 µg/mL | CCN1C(=O)c2ccc(C(=O)NCc3ccco3)cc2C1=O
51 | 31.4 µg/mL (≈ 131 µM) | O=C(/C=C/c1ccco1)N1CCc2ccccc21
52 | 35.2 µg/mL (≈ 123 µM) | CCc1ccc(N2CC(C(=O)N3CCCC3)CC2=O)cc1 (stereo not drawn)
53 | < 0.7 µg/mL | COc1ccc(C(=O)COC(=O)c2cccnc2SC)cc1
54 | 36.5 µg/mL (≈ 101 µM) | Cc1onc(-c2ccccc2)c1CNS(=O)(=O)c1cccc(Cl)c1
55 | > 47.3 µg/mL | CC(C)C1Nc2ccc(C(=O)NC3CCCCC3)cc2NC1=O (stereo not drawn)
56 | > 41.1 µg/mL | CC(=O)c1ccccc1Oc1ncnc(N)c1[N+](=O)[O-]
57 | > 47.7 µg/mL | O=C(CN1C(=O)NC2NC(=O)NC21)N/N=C/c1ccccc1O (stereo not drawn)
58 | > 62.1 µg/mL | CS(=O)(=O)c1ccc(C(=O)OCC(=O)Nc2cccnc2Cl)cc1[N+](=O)[O-]
